Measured values: patent publication US20240173319A1, “SOLID DOSE PHARMACEUTICAL COMPOSITION” (Sumitomo Pharma Oncology, Inc., priority 2019, published 2024)

Columns and labels:
Format in all cases: physicochemical
[1] = Log D (pH 7.4) of the API
Description: The hydrochloride salt of the compound of formula (I) was formulated into three (3) oral dose strengths (5, 25, and 125 mg dose [based on free base]). The physicochemical properties of the compound of formula (I), the active pharmaceutical ingredient (API), are summarized in Table 1.

[2] = Solubility of the API in media
Description: The solubility of the API was tested. In all media, solubility of the compound is good, namely the maximum tested dose of 125 mg was found soluble in 250 mL of media. […] This characterization may not be accurate for larger doses. Reference is made to Table 2.

[3] = Excipient compatibility study, related substances (unknown RRT)
Description: An initial excipient compatibility study was performed.
In the compatibility study, all the samples were evaluated for two (2) primary properties: appearance and related substances.
(close) for 4W with respect to their related substance profile.

[4] = 40° C./75% RH, open glass vial, 4 week

- logD [1]: 2.66
- Maximum dose mg solubility in 250 ml ([2]; 0.1N HCl): 256 mg
- solubility ([2]; 0.1N HCl, pH 1.005, simulated gastric fluid): 1030 µg/mL
- Maximum dose mg solubility in 250 ml ([2]; Water): 252 mg
- Solubility characterization with reference to BCS classification ([2]; maximum tested dose of 125 mg in 250 mL of media): highly soluble
- Maximum dose mg solubility in 250 ml ([2]; pH 4.5 Acetate buffer): 253 mg
- solubility ([2]; pH 4.5 acetate buffer, pH 4.508, aqueous buffer): 1010 µg/mL
- Maximum dose mg solubility in 250 ml ([2]; pH 6.8 Phosphate buffer): 245 mg
- solubility ([2]; pH 6.8 phosphate buffer, pH 6.812, aqueous buffer): 980 µg/mL
- solubility ([2]; water, pH 6.213, water): 1010 µg/mL
- Total (related substances) [3, 4]: 0.84%
- Unknown RRT 0.162 [3, 4]: 0.11%
- Unknown RRT 0.866 [3, 4]: BQL
- Unknown RRT 0.989 [3, 4]: BQL
- Unknown RRT 1.046 [3, 4]: BQL
- Unknown RRT 1.07 [3, 4]: 0.07%
- Unknown RRT 1.08 [3, 4]: 0.05%
- Unknown RRT 1.341 [3, 4]: 0.2%
- Unknown RRT 1.38 [3, 4]: 0.1%
- Unknown RRT 1.549 [3, 4]: 0.19%
- Unknown RRT 1.633 [3, 4]: 0.12%
- Total (related substances) ([3]; Initial): 0.93%
- Unknown RRT 0.162 ([3]; Initial): 0.12%
- Unknown RRT 0.989 ([3]; Initial): BQL
- Unknown RRT 1.046 ([3]; Initial): BQL
- Unknown RRT 1.07 ([3]; Initial): 0.07%
- Unknown RRT 1.08 ([3]; Initial): 0.06%
- Unknown RRT 1.341 ([3]; Initial): 0.27%
- Unknown RRT 1.38 ([3]; Initial): 0.08%
- Unknown RRT 1.549 ([3]; Initial): 0.21%
- Unknown RRT 1.633 ([3]; Initial): 0.12%
Compound: COc1cc(Nc2nccc(Nc3cccnc3-c3ccccn3)n2)ccc1N1CCN(C)CC1.Cl [API, N2-[3-methoxy-4-(4-methylpiperazin-1yl)phenyl]-N4-[2-(pyridin-2-yl)pyridin 3-yl] pyrimidine-2,4-diamine hydrochloride]
